One block for each compound: values may come before it. d = 2'-deoxy (DNA); m = 2'-O-methyl
Key:
[1] = tested on: T24 human bladder cancer cells; assay: inhibition of HDAC activity in whole cells (acetylated histone H-4 Western); format: cell-based; details: acetylated histone H-4 in T24 cells, 16 hours
Experimental: T24 human bladder cancer cells (ATCC, Manassas, Va.) growing in culture were incubated with test compounds for 16 hours. Histones were extracted from the cells by standard procedures (see e.g. Yoshida et al., supra) after the culture period. Twenty μg total core histone protein was loaded onto SDS/PAGE and transferred to nitrocellulose membranes, which were then reacted with polyclonal antibody specific for acetylated histone H-4 (Upstate Biotech Inc., Lake Placid, […].). Horse Radish Peroxidase conjugated secondary antibody was used at a dilution of 1:5000 to detect primary antibody binding. The secondary antibody binding was visualized by use of the Enhanced chemiluminescence (ECL) detection kit (Amersham-Pharmacia Biotech., Inc., Piscataway, N.J.). After exposure to film, acetylated H-4 signal was quantitated by densitometry.

human HDAC-4 protein = assay: Western blot of HDAC-4 protein expression; format: cell-based; details: A549 cells, 48 hours
Experimental: Human cancer A549 cells were treated with AS1, AS2 or MM2 oligos for 48 hours. Whole cell lysates were analyzed by Western blotting using antibodies specific against human HDAC-4.
(§1) OSDN treatment conditions were as previously described.
(§2) Cells were lysed in buffer containing 1% Triton X-100, 0.5% sodium deoxycholate, 5 mM EDTA, 25 mM Tris-HCl, pH 7.5, plus protease inhibitors. Total protein was quantified by the protein assay reagent from Bio-Rad (Hercules, Calif.). 100 ug of total protein was analyzed by SDS-PAGE. Next, total protein was transferred onto a PVDF membrane and probed with various HDAC-specific primary antibodies. Rabbit anti-HDAC-1 (H-51), anti-HDAC-2 (H-54) antibodies (Santa Cruz Biotechnologies, Santa Cruz, Calif.) were used at 1:500 dilution. Rabbit anti-HDAC-3 antibody (Sigma, St. Louis, Mo.) was used at a dilution of 1:1000. Anti-HDAC-4 antibody was prepared as previously described (Wang, S. H. et al., (1999) Mol. Cell. Biol. 19:7816-27), and was used at a dilution of 1:1000. Anti-HDAC-6 antibody was raised by immunizing rabbits with a GST fusion protein containing a fragment of HDAC-6 protein (amino acid #990 to #1216, GenBank Accession No. AAD29048). Rabbit antiserum was tested and found only to react specifically to the human HDAC-6 isoform. HDAC-6 antiserum was used at 1:500 dilution in Western blots to detect HDAC-6 in total cell lysates. […]

Human A549 cells = assay: cDNA array analysis of gene transcription; format: cell-based; details: 50 nM, two days, vs HDAC-4 mismatch oligo (MM2)
Experimental: (§3) Briefly, human A549 and/or T24 human bladder carcinoma cells were seeded in 10 cm tissue culture dishes one day prior to oligonucleotide treatment. The cell lines were obtained from the American Type Culture Collection (ATCC) (Manassas, Va.) and were grown under the recommended culture conditions. Before the addition of the oligonucleotides, cells were washed with PBS (phosphate buffered saline). Next, lipofectin transfection reagent (GIBCO BRL Mississauga, Ontario, CA), at a concentration of 6.25 μg/ml, was added to serum free OPTIMEM medium (GIBCO BRL, Rockville, Md.), which was then added to the cells. The oligonucleotides to be screened were then added directly to the cells (i.e., one oligonucleotide per plate of cells). Mismatched oligonucleotides were used as controls. The same concentration of oligonucleotide (e.g., 50 nM) was used per plate of cells for each oligonucleotide tested.

human HDAC-4 mRNA = assay: Northern blot analysis of HDAC-4 RNA expression; format: cell-based; details: A549 cells, escalating doses, 24 hours
Experimental: Human cancer A549 cells were treated with escalating doses of AS1, AS2 or MM2 oligos for 24 hours. Total RNAs were harvested for Northern analysis.
Seventeen phosphorothioate ODNs containing sequences complementary to the 5′ or 3′ UTR of the human HDAC-4 gene (GenBank Accession No. AB006626) were screened as above. […] HDAC-4 MM oligo was created as a control; compared to the antisense oligo, it contains a 6-base mismatch.
as §3
Cells were harvested, and total RNAs were analyzed by Northern blot analysis. […]

MDAmb231 = assay: apoptosis, Cell Death Detection ELISA, MDAmb231; format: cell-based, human; details: 48 hour treatment
Experimental: as §3
(§4) In order to determine the effect of HDAC OSDNs on cell growth and cell death through apoptosis, A549 or T24 cells, MDAmb231 cells, and HMEC cells (ATCC, Manassas, Va.) were treated with HDAC OSDNs as previously described.
(§5) For the apoptosis study, cells were analyzed using the Cell Death Detection ELISA^Plus kit (Roche Diagnostic GmBH, Mannheim, Germany) according to the manufacturer's directions. Typically, 10,000 cells were plated in 96-well tissue culture dishes for 2 hours before harvest and lysis. Each sample was analyzed in duplicate. ELISA reading was done using a MR700 plate reader (DYNEX Technology, Ashford, Middlesex, England) at 410 nm. The reference was set at 490 nm.

human HDAC-6 RNA = assay: Northern blot analysis of HDAC-6 RNA expression; format: cell-based; details: T24 cells, 100 nM, 24 hours
Experimental: Thirteen phosphorothloate ODNs containing sequences complementary to the 5′ or 3′ untranslated regions of the human HDAC-6 gene (GenBank Accession No. AJ011972) were screened as above. […] HDAC-6 MM oligo was created as a control; compared to the antisense oligo, it contains a 7-base mismatch.
as §3
(§6) Cells were harvested, and total RNAs were analyzed by Northern blot analysis. Briefly, total RNA was extracted using RNeasy miniprep columns (QIAGEN). […]

T24 = assay: apoptosis, Cell Death Detection ELISA, T24; format: cell-based, human; details: 48 hour treatment
Experimental: as §3, §4, §5

human cancer cells = assay: cell growth analysis and apoptosis, cancer cells; format: cell-based; details: various human cancer cells, 50 nM
Experimental: as §4, §5
Cells were harvested and cell numbers counted by trypan blue exclusion using a hemocytometer. Percentage of inhibition was calculated as (100-AS cell numbers/control cell numbers)%.

human HDAC-6 protein = assay: Western blot of HDAC-6 protein expression; format: cell-based; details: A549 cells, 50 nM, 48 hours
Experimental: as §1
as §2, with “lysates. Horse Radish Peroxidase conjugated secondary antibody was used at a dilution of 1:5000 to detect primary antibody binding.” for “lysates.”

A549 = assay: apoptosis, Cell Death Detection ELISA, A549; format: cell-based, human; details: 48 hour treatment
Experimental: as §3, §4, §5

HMEC = assay: apoptosis, Cell Death Detection ELISA, HMEC; format: cell-based, human; details: 48 hour treatment
Experimental: as §3, §4, §5

mammalian HDAC = details: Yoshida et al. 1990; cited from earlier work
A549 cells = assay: RNase protection assay of p21, GADD45 and Bax mRNA, A549; details: A549, TSA 250 ng/ml 16 hours vs lipofectin
Experimental: As a control, A549 cells were treated by lipofectin with or without TSA (250 ng/ml) treatment for 16 hours. […] Total RNA from cells was prepared using “RNeasy miniprep kit” from QIAGEN following the manufacturer's manual. Labeled probes used in the protection assays were synthesized using “hStress-1 multiple-probe template sets” from Pharmingen (San Diego, Calif., U.S.A.) according to the manufacturer's instructions. Protection procedures were performed using “RPA II™ Ribonuclease Protection Assay Kit” from Ambion, (Austin, Tex.) following the manufacturer's instructions. Quantitation of the bands from autoradiograms was done by using Cyclone™ Phosphor System (Packard Instruments Co. Inc., Meriden, Conn.).

[2] = tested on: murine erythroleukemia cells; details: Yoshida et al. 1987; cited from earlier work
human HDAC-2 protein = assay: Western blot of HDAC-2 protein expression; format: cell-based; details: A549 cells, 50 nM, 48 hours
Experimental: as §1
as §2, with “lysates. Horse Radish Peroxidase conjugated secondary antibody was used at a dilution of 1:5000 to detect primary antibody binding.” for “lysates.”

human HDAC-2 RNA = assay: Northern blot analysis of HDAC-2 RNA expression; format: cell-based; details: T24 cells, 100 nM, 24 hours
Experimental: Twenty-four phosphorothioate ODNs containing sequences complementary to the 5′ or 3′ UTR of the human HDAC-2 gene (GenBank Accession No. U31814) were screened as above. […] HDAC-2 MM was created as a control; compared to the antisense oligo, it contains a 7-base mismatch.
as §3, §6

human HDAC-3 mRNA = assay: Northern blot analysis of HDAC-3 RNA expression; format: cell-based; details: T24 cells, 100 nM, 24 hours
Experimental: Twenty-one phosphorothioate ODNs containing sequences complementary to the 5′ or 3′ UTR of the human HDAC-3 gene (GenBank Accession No. AF039703) were screened as above. […] HDAC-3 MM oligo was created as a control; compared to the antisense oligo, it contains a a 6-base mismatch.
as §3, §6

human HDAC-3 protein = assay: Western blot of HDAC-3 protein expression; format: cell-based; details: A549 cells, 50 nM, 48 hours
Experimental: as §1
as §2, with “lysates. Horse Radish Peroxidase conjugated secondary antibody was used at a dilution of 1:5000 to detect primary antibody binding.” for “lysates.”

Compound: Nc1ccccc1NC(=O)CCCCCCC(=O)c1ccc(-c2ccccc2)nc1 [MG 38 69]
- 4-Ac [1]: 5 µM

Compound: Nc1ccccc1NC(=O)CCCCCCC(=O)c1ccc(-c2ccccc2)cc1 [MG 36 50]
- 4-Ac [1]: 10 µM

Compound: 5-GCTGCCTGCCGTGCCCACCC-3′ (sugars from the 5' end m4 d12 m4, all phosphorothioate, methylation of C and T or U not given here) [HDAC-4 AS1, antisense oligo, human HDAC4 5′-UTR]
- expression of HDAC-4 protein (human HDAC-4 protein): inbibit HDAC-4 expression at protein level
- fold change CDK4 (Human A549 cells): −3 fold
- fold change Egr-1 (Human A549 cells): 3 fold
- fold change GADD45 (Human A549 cells): 3 fold
- fold change GADD153 (Human A549 cells): 6 fold
- fold change IL-15 (Human A549 cells): 4 fold
- fold change IRF (Human A549 cells): 2 fold
- fold change Notch-4 (Human A549 cells): −3 fold
- fold change PLK (Human A549 cells): −4 fold
- fold change basic FGF (Human A549 cells): 2 fold
- fold change cyclin A2 (Human A549 cells): −3 fold
- fold change cyclin B1 (Human A549 cells): −3 fold
- fold change p21 (Human A549 cells): 4 fold
- fold change topo II α (Human A549 cells): −5 fold
- HDAC-4 expression at RNA level (human HDAC-4 mRNA): inbibit HDAC-4 expression at RNA level in a dose-dependent manner

Compound: CC(/C=C/C(=O)Nc1ccccc1N)=C\C(C)C(=O)c1ccc(N(C)C)cc1 (stereo not drawn) [MG 24 29]
- 4-Ac [1]: 1 µM

Compound: 5′-CAGGCTGGAATGAGCTACAG-3′ (sugars from the 5' end m4 d12 m4, all phosphorothioate, methylation of C not given here) [HDAC-6, antisense oligo, human HDAC6 3′-UTR]
- Apoptosis MDAmb231 (MDAmb231; HDAC isotype-specific OSDN): − (“−”: < = 2x fold over non-specific background)
- HDAC-6 RNA expression (antisense activity) (human HDAC-6 RNA): antisense activity to human HDAC-6
- Apoptosis T24 (T24; HDAC isotype-specific OSDN): − (“−”: < = 2x fold over non-specific background)
- effect on cancer cell growth and apoptosis (human cancer cells): no effect on cancer cell growth or apoptosis
- expression of HDAC-6 protein (human HDAC-6 protein): specifically inhibits the expression of the respective HDAC isotype protein
- Apoptosis A549 (A549; HDAC isotype-specific OSDN): − (“−”: < = 2x fold over non-specific background)
- Apoptosis HMEC (HMEC; HDAC isotype-specific OSDN): − (“−”: < = 2x fold over non-specific background)

Compound: Cc1ccc(S(=O)(=O)Nc2ccc(/C=C/C(=O)Nc3ccccc3N)cc2)cc1 [MG 37 63]
- 4-Ac [1]: 5 µM

- fold induction of transcription Bax (A549 cells): 0.8 fold
- fold induction of transcription GADD45 (A549 cells): 0.6 fold
- fold induction of transcription p21 (A549 cells): 2.8 fold
Compound: CC(/C=C/C(=O)NO)=C\[C@@H](C)C(=O)c1ccc(N(C)C)cc1 [TSA, (R)-Trichostatin A, reference compound]
- Apoptosis MDAmb231 (MDAmb231; 100 ng/ml): ++ (“++”: 3-5X fold)
- inhibition of mammalian HDAC (mammalian HDAC): potent inhibitor of mammalian HDAC
- Apoptosis T24 (T24; 100 ng/ml): ++ (“++”: 3-5X fold)
- Apoptosis A549 (A549; 100 ng/ml): ++ (“++”: 3-5X fold)
- Apoptosis HMEC (HMEC; 100 ng/ml): + (“+”: 2-3X fold)
- induction of differentiation [2]: potent inducer of differentiation in murine erythroleukemia cells

Compound: 5′-GCTGAGCTGTTCTGATTTGG-3′ (chemistry not given here) [HDAC-2, antisense oligo, human HDAC2 3′-UTR]
- Apoptosis MDAmb231 (MDAmb231; HDAC isotype-specific OSDN): − (“−”: < = 2x fold over non-specific background)
- expression of HDAC-2 protein (human HDAC-2 protein): specifically inhibits the expression of the respective HDAC isotype protein
- Apoptosis T24 (T24; HDAC isotype-specific OSDN): − (“−”: < = 2x fold over non-specific background)
- effect on cancer cell growth and apoptosis (human cancer cells): minimal effect on cancer cell growth inhibition
- HDAC-2 RNA expression (antisense activity) (human HDAC-2 RNA): antisense activity to human HDAC-2
- Apoptosis A549 (A549; HDAC isotype-specific OSDN): − (“−”: < = 2x fold over non-specific background)
- Apoptosis HMEC (HMEC; HDAC isotype-specific OSDN): − (“−”: < = 2x fold over non-specific background)

Compound: 5′-CGCTTTCCTTGTCATTGACA-3′ (sugars from the 5' end m4 d12 m4, all phosphorothioate, methylation of C and T or U not given here) [HDAC-3, antisense oligo, human HDAC3 3′-UTR]
- Apoptosis MDAmb231 (MDAmb231; HDAC isotype-specific OSDN): − (“−”: < = 2x fold over non-specific background)
- HDAC-3 RNA expression (antisense activity) (human HDAC-3 mRNA): antisense activity to human HDAC-3
- Apoptosis T24 (T24; HDAC isotype-specific OSDN): − (“−”: < = 2x fold over non-specific background)
- effect on cancer cell growth and apoptosis (human cancer cells): no effect on cancer cell growth or apoptosis
- expression of HDAC-3 protein (human HDAC-3 protein): specifically inhibits the expression of the respective HDAC isotype protein
- Apoptosis A549 (A549; HDAC isotype-specific OSDN): − (“−”: < = 2x fold over non-specific background)
- Apoptosis HMEC (HMEC; HDAC isotype-specific OSDN): − (“−”: < = 2x fold over non-specific background)

Compound: 5′-TACAGTCCATGCAACCTCCA-3′ (sugars from the 5' end m4 d12 m4, all phosphorothioate, methylation of C and T or U not given here) [HDAC4 AS2, antisense oligo, human HDAC4 3′-UTR]
- expression of HDAC-4 protein (human HDAC-4 protein): inbibit HDAC-4 expression at protein level
- HDAC-4 expression at RNA level (human HDAC-4 mRNA): inbibit HDAC-4 expression at RNA level in a dose-dependent manner
